What was measured:
Format in all cases: cell-based
[1] = tested on: C2C12 cells; assay: Measurement of glucose absorption ability; conditions: 100 μM compound with 1 μM insulin, 24 hours, differentiated C2C12 cells; 3H-deoxy-glucose; higher value = stronger; more than 200% counts as glucose absorption ability
Experimental: (§1) 2 mM metformin was used as a comparative compound for each of the plates (control group).
C2C12 cells (ATCC: American Type Culture Collection), a muscle cell model, were induced to differentiate into muscle cells in 2% bovine fetal serum-containing media (DMEM (Gibco), FBS (Gibco)) for 6 days. The C2C12 cells which differentiated into muscle cells were transferred to serum-free low glucose media (DMEM (Gibco), FBS (Gibco)), treated with 100 μM of each of the compounds, and then cultured with 1 μM of insulin for 24 hours. After cultivation, the cells were treated with 1 μCi ^3H-deoxy-glucose (Amersham Pharmacia) and 10 μM deoxy-glucose (Sigma) at 37° C. for 15 minutes. The media were removed therefrom, and the cells were washed twice with PBS (phosphate buffered saline). The washed cells were treated with 0.1N NaOH and neutralized with 1N HCl. The content of glucose absorbed into the cells was measured with a liquid scintillation counter.
A higher measurement value means a stronger ability to reduce insulin resistance.

[2] = tested on: HepG2 cells; assay: Measurement of triglyceride synthesis inhibitory ability; conditions: 24 hours, HepG2 cells, content of triglyceride formed, lower value = stronger inhibition; for Triglyceride (100 μM) aver.: 100 μM compound; for Triglyceride (500 μM) aver.: 500 μM compound
Experimental: as §1
HepG2 cells (ATCC: American Type Culture Collection) were cultured in 1% serum-containing media (DMEM (Gibco), FBS (Gibco)) for 24 hours, and then treated with 100 μM or 500 μM of each of the compounds prepared in Examples for 24 hours. Then, the cells were disrupted with a lysis solution (0.1 M potassium phosphate, pH 7.4, 0.05 M NaCl, 5 mM cholic acid, 0.1% Triton X-100). To the disrupted cells was added the same volume of a reaction solution (0.76 U/ml of a glycerol kinase (Asan Pharmaceutical Co., Ltd.), […] of a peroxidase (Asan Pharmaceutical Co., Ltd.), 22.2 U/ml of a glycerol oxidizing agent (Asan Pharmaceutical Co., Ltd.), and 300 μM of Amplex red as a fluorescent factor (Molecular Probe)), which was allowed to react at 37° C. for 30 minutes. After completion of the reaction, the content of triglyceride formed in the cell lysates was measured at a wavelength of 560/590 nm (ex/em) using a fluorescence microscope.
A lower measurement value means an increased triglyceride synthesis inhibitory ability.

[3] = tested on: HepG2 cells; assay: Measurement of gluconeogenesis inhibitory ability; conditions: 100 μM compound, 24 hours, HepG2 cells, content of glucose formed from 14C-lactate, lower value = stronger inhibition; for activity at 100 µM: Homo sapiens, HepG2, 24 h, read-out: Gluconeogenesis inhibition (100 μM) aver.
Experimental: as §1
HepG2 cells (ATCC: American Type Culture Collection) were cultured in 10% serum-containing high glucose media, transferred to no serum-containing low glucose media (DMEM (Gibco), FBS (Gibco)), and then treated with 100 μM of each of the compounds for 24 hours. Then, the cells were treated with 0.5 μCi ^14C-lactate (Amersham Pharmacia) and 10 mM L-lactate (Sigma), and cultured for 4 hours. After cultivation, the media were removed therefrom, and the cells were washed with PBS, treated with 0.1N NaOH and kept at room temperature for 1 hour. Then, the cells were neutralized with 1N HCl, and the content of glucose formed in the cells was measured with a liquid scintillation counter.
A lower measurement value means an increased gluconeogenesis inhibitory ability.

[4] = tested on: HepG2 cells; assay: Measurement of cholesterol synthesis inhibitory ability; conditions: 24 hours, HepG2 cells, content of cholesterol formed, lower value = stronger inhibition; for Cholesterol (100 μM) aver.: 100 μM compound; for Cholesterol (500 μM) aver.: 500 μM compound
Experimental: as §1
A cholesterol synthesis inhibitory ability, which is an important function of AMPK (AMP-activated protein kinase), was measured using HepG2 cells (ATCC: American Type Culture Collection) as a hepatic cell model according to the following procedure.
The hepatic cell model HepG2 cells were cultured in 1% serum-containing media (DMEM (Gibco), FBS (Gibco)) for 24 hours, and then treated with 100 μM or 500 μM of each of the compounds prepared in Examples for 24 hours. Then, the cells were disrupted with a lysis solution (0.1 M potassium phosphate, pH 7.4, 0.05 M NaCl, 5 mM cholic acid, 0.1% Triton X-100 (Sigma)). To the disrupted cells was added the same volume of a reaction solution (2 U/ml of a cholesterol oxidizing agent, 2 U/ml of a peroxidase, 0.2 U/ml of a cholesterol esterase, and 300 μM of Amplex red as a fluorescent factor (Molecular Probe)), which was allowed to react at 37° C. for 30 minutes. After completion of the reaction, the content of cholesterol formed in the cell lysates was measured at a wavelength of 560/590 nm (ex/em) using a fluorescence microscope.
A lower measurement value means an increased cholesterol synthesis inhibitory ability.

Cl.N=C(NCc1ccc2c(c1)OCO2)NC(=N)NCC1CC1 [Example 21, N1-benzo[1,3]dioxol-5-ylmethyl-N2-cyclopropanemethyl biguanide hydrochloride]
Glucose absorption (100 μM) aver. [1]: 162.2% | Triglyceride (100 μM) aver. [2]: 108.88 | Triglyceride (500 μM) aver. [2]: 83.07 | Gluconeogenesis inhibition (100 μM) aver. [3]: 88.12 | Cholesterol (100 μM) aver. [4]: 54.92 | Cholesterol (500 μM) aver. [4]: 15.61

Cl.N=C(N)NC(=Nc1cc(Cl)cc(Cl)c1)NCc1ccc2c(c1)OCO2 [Example 34, N1-benzo[1,3]dioxol-5-ylmethyl-N2-(3,5-dichlorophenyl)biguanide hydrochloride]
Triglyceride (100 μM) aver. [2]: 21.41 | Triglyceride (500 μM) aver. [2]: 8.80 | activity at 100 µM [3]: 2.37% | Cholesterol (100 μM) aver. [4]: 15.56 | Cholesterol (500 μM) aver. [4]: 39.12

Cl.N=C(N)NC(=NCc1ccc(F)c(F)c1)NCc1ccc2c(c1)OCO2 [Example 44, N1-benzo[1,3]dioxol-5-ylmethyl-N2-(3,4-difluorobenzyl)biguanide hydrochloride]
Triglyceride (100 μM) aver. [2]: 78.42 | Triglyceride (500 μM) aver. [2]: 56.79 | activity at 100 µM [3]: 103% | Cholesterol (100 μM) aver. [4]: 74.32 | Cholesterol (500 μM) aver. [4]: 49.84

Cc1ccc(CN=C(NCc2ccc3c(c2)OCO3)NC(=N)N)cc1.Cl [Example 11, N1-benzo[1,3]dioxol-5-ylmethyl-N2-(4-methylbenzyl)biguanide hydrochloride]
Triglyceride (100 μM) aver. [2]: 7.49 | activity at 100 µM [3]: 1.81% | Cholesterol (100 μM) aver. [4]: 32.34

CCCN=C(NCc1ccc2c(c1)OCO2)NC(=N)N.Cl [Example 16, N1-benzo[1,3]dioxol-5-ylmethyl-N2-propyl biguanide hydrochloride]
Triglyceride (100 μM) aver. [2]: 32.56 | activity at 100 µM [3]: 33.1% | Cholesterol (100 μM) aver. [4]: 38.66

Cc1cccc(N=C(NCc2ccc3c(c2)OCO3)NC(=N)N)c1.Cl [Example 42, N1-benzo[1,3]dioxol-5-ylmethyl-N2-(3-methylphenyl)biguanide hydrochloride]
Triglyceride (100 μM) aver. [2]: 75.45 | Triglyceride (500 μM) aver. [2]: 36.78 | activity at 100 µM [3]: 56.1% | Cholesterol (100 μM) aver. [4]: 46.42 | Cholesterol (500 μM) aver. [4]: 28.95

CC(C)CN=C(NCc1ccc2c(c1)OCO2)NC(=N)N.Cl [Example 23, N1-benzo[1,3]dioxol-5-ylmethyl-N2-isobutyl biguanide hydrochloride]
Triglyceride (100 μM) aver. [2]: 84.58 | Triglyceride (500 μM) aver. [2]: 59.80 | activity at 100 µM [3]: 100% | Cholesterol (100 μM) aver. [4]: 68.02 | Cholesterol (500 μM) aver. [4]: 36.29

Cl.N=C(N)NC(=Nc1cccc(Br)c1)NCc1ccc2c(c1)OCO2 [Example 41, N1-benzo[1,3]dioxol-5-ylmethyl-N2-(3-bromophenyl)biguanide hydrochloride]
Triglyceride (100 μM) aver. [2]: 25.51 | Triglyceride (500 μM) aver. [2]: 19.79 | activity at 100 µM [3]: 0% | Cholesterol (100 μM) aver. [4]: 23.61 | Cholesterol (500 μM) aver. [4]: 32.23

Cl.N=C(N)NC(=Nc1ccc(Oc2ccccc2)cc1)NCc1ccc2c(c1)OCO2 [Example 30, N1-benzo[1,3]dioxol-5-ylmethyl-N2-(4-phenoxyphenyl)biguanide hydrochloride]
Triglyceride (100 μM) aver. [2]: 18.22 | Triglyceride (500 μM) aver. [2]: 3.05 | activity at 100 µM [3]: 3.04% | Cholesterol (100 μM) aver. [4]: 21.94 | Cholesterol (500 μM) aver. [4]: 40.34

Cl.N=C(N)NC(=NCc1ccc(F)cc1)NCc1ccc2c(c1)OCO2 [Example 43, N1-benzo[1,3]dioxol-5-ylmethyl-N2-(4-fluorobenzyl)biguanide hydrochloride]
Triglyceride (100 μM) aver. [2]: 82.02 | Triglyceride (500 μM) aver. [2]: 63.67 | activity at 100 µM [3]: 83.5% | Cholesterol (100 μM) aver. [4]: 73.10 | Cholesterol (500 μM) aver. [4]: 47.65

Cl.N=C(N)NC(=Nc1ccc(F)cc1)NCc1ccc2c(c1)OCO2 [Example 14, N1-benzo[1,3]dioxol-5-ylmethyl-N2-(4-fluorophenyl)biguanide hydrochloride]
Triglyceride (100 μM) aver. [2]: 115.04 | activity at 100 µM [3]: 102% | Cholesterol (100 μM) aver. [4]: 57.35

COCCN=C(NCc1ccc2c(c1)OCO2)NC(=N)N.Cl [Example 31, N1-benzo[1,3]dioxol-5-ylmethyl-N2-(2-methoxyethyl)biguanide hydrochloride]
Triglyceride (100 μM) aver. [2]: 74.51 | Triglyceride (500 μM) aver. [2]: 73.00 | activity at 100 µM [3]: 100% | Cholesterol (100 μM) aver. [4]: 84.45 | Cholesterol (500 μM) aver. [4]: 69.16

COc1cc(N=C(NCc2ccc3c(c2)OCO3)NC(=N)N)cc(OC)c1OC.Cl [Example 24, N1-benzo[1,3]dioxol-5-ylmethyl-N2-(3,4,5-trimethoxyphenyl)biguanide hydrochloride]
Triglyceride (100 μM) aver. [2]: 80.30 | Triglyceride (500 μM) aver. [2]: 60.08 | activity at 100 µM [3]: 88.7% | Cholesterol (100 μM) aver. [4]: 65.36 | Cholesterol (500 μM) aver. [4]: 31.14

COc1ccc(OC)c(N=C(NCc2ccc3c(c2)OCO3)NC(=N)N)c1.Cl [Example 12, N1-benzo[1,3]dioxol-5-ylmethyl-N2-(2,5-dimethoxyphenyl)biguanide hydrochloride]
Triglyceride (100 μM) aver. [2]: 84.10 | activity at 100 µM [3]: 27.4% | Cholesterol (100 μM) aver. [4]: 58.53

Cl.N=C(N)NC(=NC1CCCCCC1)NCc1ccc2c(c1)OCO2 [Example 20, N1-benzo[1,3]dioxol-5-ylmethyl-N2-cycloheptyl biguanide hydrochloride]
Triglyceride (100 μM) aver. [2]: 99.89 | Triglyceride (500 μM) aver. [2]: 41.32 | activity at 100 µM [3]: 39.4% | Cholesterol (100 μM) aver. [4]: 31.37 | Cholesterol (500 μM) aver. [4]: −14.69

CCCCCCN=C(NCc1ccc2c(c1)OCO2)NC(=N)N.Cl [Example 6, N1-benzo[1,3]dioxol-5-ylmethyl-N2-hexyl biguanide hydrochloride]
Triglyceride (100 μM) aver. [2]: 97.8 | Triglyceride (500 μM) aver. [2]: 70.3 | activity at 100 µM [3]: 104% | Cholesterol (100 μM) aver. [4]: 31.8 | Cholesterol (500 μM) aver. [4]: 19.1

Cl.N=C(N)NC(=NC1CCCCC1)NCc1ccc2c(c1)OCO2 [Example 2, N1-benzo[1,3]dioxol-5-ylmethyl-N2-cyclohexyl biguanide hydrochloride]
Triglyceride (100 μM) aver. [2]: 108.9 | Triglyceride (500 μM) aver. [2]: 26.9 | activity at 100 µM [3]: 95.2% | Cholesterol (100 μM) aver. [4]: 43.7 | Cholesterol (500 μM) aver. [4]: 15.6

Cl.N=C(N)NC(=NCc1ccc(Br)cc1)NCc1ccc2c(c1)OCO2 [Example 36, N1-benzo[1,3]dioxol-5-ylmethyl-N2-(4-bromobenzyl)biguanide hydrochloride]
Triglyceride (100 μM) aver. [2]: 61.93 | Triglyceride (500 μM) aver. [2]: 24.04 | activity at 100 µM [3]: 92.9% | Cholesterol (100 μM) aver. [4]: 25.31 | Cholesterol (500 μM) aver. [4]: 40.17

Reference: patent US8642647B2, “N1-benzo[1,3]dioxol-5-ylmethyl-N2-substituted biguanide derivative, preparation method thereof, and pharmaceutical composition containing same” (Hanall Biopharma Co., Ltd., priority 2008, dated 2014)
